According to ChEMBL document CHEMBL3734705, “Synthesis and in vitro cytotoxicity of novel C-12 substituted-14-deoxy-andrographolide derivatives as potent anti-cancer agents” (2015):
The source made the active and inactive calls. The calls are words filed in the database; no cut-off is given here.

Assays:
[1] = Cytotoxicity against human RXF393 cells assessed as growth level at 10 uM after 48 hrs by SRB assay; type: functional, RXF 393
U-251 = assay: Cytotoxicity against human U251 cells assessed as growth inhibition at 10 uM after 48 hrs by SRB assay; type: functional; details: U-251, 48 h, read-out: GI
EKVX = assay: Cytotoxicity against human EKVX cells assessed as growth inhibition at 10 uM after 48 hrs by SRB assay; type: functional; details: for inhibition of growth at 10 µM: read-out: GI
A549 = assay: Cytotoxicity against human A549 cells assessed as growth level at 10 uM after 48 hrs by SRB assay; type: functional
[2] = Cytotoxicity against human SNB75 cells assessed as growth level at 10 uM after 48 hrs by SRB assay; type: functional, SNB-75
786-0 = assay: Cytotoxicity against human 786-0 cells assessed as growth level at 10 uM after 48 hrs by SRB assay; type: functional
K562 = assay: Cytotoxicity against human K562 cells assessed as growth inhibition at 10 uM after 48 hrs by SRB assay; type: functional; details: K562, 48 h, read-out: GI
HT-29 = assay: Cytotoxicity against human HT-29 cells assessed as growth inhibition at 10 uM after 48 hrs by SRB assay; type: functional; details: HT-29, 48 h, read-out: GI
[3] = Cytotoxicity against human HCC2998 cells assessed as growth inhibition at 10 uM after 48 hrs by SRB assay; type: functional; details: HCC 2998, 48 h, read-out: GI
MCF7 = assay: Cytotoxicity against human MCF7 cells assessed as growth inhibition at 10 uM after 48 hrs by SRB assay; type: functional; details: MCF7, 48 h, read-out: GI
[4] = Cytotoxicity against human PC3 cells assessed as growth level at 10 uM after 48 hrs by SRB assay; type: functional, PC-3
[5] = Cytotoxicity against human UO31 cells assessed as growth level at 10 uM after 48 hrs by SRB assay; type: functional, UO-31
[6] = Cytotoxicity against human SF539 cells assessed as growth level at 10 uM after 48 hrs by SRB assay; type: functional, SF-539
Malme-3M [7] = assay: Cytotoxicity against human MALME-3M cells assessed as growth inhibition at 10 uM after 48 hrs by SRB assay; type: functional; details: read-out: GI
Malme-3M [8] = assay: Cytotoxicity against human MALME-3M cells assessed as growth level at 10 uM after 48 hrs by SRB assay; type: functional
ACHN = assay: Cytotoxicity against human ACHN cells assessed as growth level at 10 uM after 48 hrs by SRB assay; type: functional
CCRF-CEM = assay: Cytotoxicity against human CCRF-CEM cells assessed as growth level at 10 uM after 48 hrs by SRB assay; type: functional
[9] = Cytotoxicity against human SF295 cells assessed as growth level at 10 uM after 48 hrs by SRB assay; type: functional, SF-295
[10] = Cytotoxicity against human UACC62 cells assessed as growth level at 10 uM after 48 hrs by SRB assay; type: functional, UACC-62
[11] = Cytotoxicity against human HCT15 cells assessed as growth level at 10 uM after 48 hrs by SRB assay; type: functional, HCT-15
[12] = Cytotoxicity against human RPMI8226 cells assessed as growth inhibition at 10 uM after 48 hrs by SRB assay; type: functional; details: RPMI-8226, 48 h, read-out: GI
[13] = Cytotoxicity against human HOP62 cells assessed as growth inhibition at 10 uM after 48 hrs by SRB assay; type: functional; details: HOP-62, 48 h, read-out: GI
[14] = Cytotoxicity against human OVCAR3 cells assessed as growth level at 10 uM after 48 hrs by SRB assay; type: functional, OVCAR-3
NCI-H226 = assay: Cytotoxicity against human NCI-H226 cells assessed as growth level at 10 uM after 48 hrs by SRB assay; type: functional
[15] = Cytotoxicity against human LOXIMVI cells assessed as growth level at 10 uM after 48 hrs by SRB assay; type: functional, LOX IMVI
[16] = Cytotoxicity against human MOLT4 cells assessed as growth inhibition at 10 uM after 48 hrs by SRB assay; type: functional; details: MOLT-4, 48 h, read-out: GI
MDA-MB-435 = assay: Cytotoxicity against human MDA-MB-435 cells assessed as growth inhibition at 10 uM after 48 hrs by SRB assay; type: functional; details: MDA-MB-435, 48 h, read-out: GI
NCI-H522 = assay: Cytotoxicity against human NCI-H522 cells assessed as growth inhibition at 10 uM after 48 hrs by SRB assay; type: functional; details: NCI-H522, 48 h, read-out: GI
[17] = Cytotoxicity against human SNB19 cells assessed as growth level at 10 uM after 48 hrs by SRB assay; type: functional, SNB-19

| Structure (SMILES) | Activity [1] [%] | inhibition of growth at 10 µM (U-251) [%] | Activity (A549) [%] | Activity [2] [%] | Activity (786-0) [%] | inhibition of growth at 10 µM (K562) [%] | inhibition of growth at 10 µM (MCF7) [%] | Activity [4] [%] | Activity [5] [%] | Activity [6] [%] | inhibition of growth at 10 µM (Malme-3M [7]) [%] | Activity (Malme-3M [8]) [%] | Activity (ACHN) [%] | Activity (CCRF-CEM) [%] | Activity [9] [%] | Activity [10] [%] | Activity [11] [%] | inhibition of growth at 10 µM [12] [%] | inhibition of growth at 10 µM [13] [%] | Activity [14] [%] | other results |
| --- | --- | --- | --- | --- | --- | --- | --- | --- | --- | --- | --- | --- | --- | --- | --- | --- | --- | --- | --- | --- | --- |
| C=C1CC[C@@H]2[C@](C)(COC(C)=O)[C@H](OC(C)=O)CC[C@@]2(C)[C@@H]1CC(NCCCCCCCC)C1=CCOC1=O (mixture of isomers) | 85.68 | 44.5 | 67.24 | 74.62 | 79.87 | 65.3 | 31.2 | 33.69 | 56.13 | 89.25 | 15.8 | 84.15 | 85.98 | 47.26 | 81 | 47.66 | 66.95 | 64 | 8.03 | 48.95 | inhibition of growth at 10 µM (EKVX): 24.3%; inhibition of growth at 10 µM (HT-29): 29.5%; inhibition of growth at 10 µM [3]: 8.56%; Activity (NCI-H226): 65.82%; Activity [15]: 53.89%; inhibition of growth at 10 µM [16]: 63.5%; inhibition of growth at 10 µM (MDA-MB-435): 22.4%; inhibition of growth at 10 µM (NCI-H522): 35.6%; Activity [17]: 78.29% |
| C=C1CC[C@@H]2[C@](C)(COC(C)=O)[C@H](OC(C)=O)CC[C@@]2(C)[C@@H]1CC(NC1CCCC1)C1=CCOC1=O (stereo not given in full) | 78.03 | 24.6 | 73.55 | 68.03 | 92.51 | 51.7 | 27.6 | 44.7 | 56.08 | 89.44 | 15.4 | 84.55 | 78.47 | 63.47 | 90.39 | 65.59 | 67.03 | 62.5 | 5.59 | 68.98 | inhibition of growth at 10 µM (EKVX): 47.6%; inhibition of growth at 10 µM (HT-29): 24.5%; inhibition of growth at 10 µM [3]: 9.65%; Activity (NCI-H226): 84.46%; Activity [15]: 68.48%; inhibition of growth at 10 µM [16]: 57.6%; inhibition of growth at 10 µM (MDA-MB-435): 24.3%; inhibition of growth at 10 µM (NCI-H522): 54.4% |
| C=C1CC[C@@H]2[C@](C)(COC(C)=O)[C@H](OC(C)=O)CC[C@@]2(C)[C@@H]1CC(NCc1ccccc1)C1=CCOC1=O (mixture of isomers) | 74.33 | 52.4 | 49.21 | 76.94 | 71.35 | 75.3 | 70.2 | 10.07 | 29.11 | 79.48 | 22.9 | 77.12 | 46.39 | 20.9 | 63.88 | 38.81 | 40.99 | 96.8 | 11 | 31.82 | inhibition of growth at 10 µM (EKVX): 46.1%; inhibition of growth at 10 µM [3]: 6.31%; Activity (NCI-H226): 11.36%; Activity [15]: 44.58%; inhibition of growth at 10 µM [16]: 3.86%; inhibition of growth at 10 µM (MDA-MB-435): 72.1%; Activity [17]: 68.18% |
| C=C1CC[C@@H]2[C@](C)(CO)[C@H](O)CC[C@@]2(C)[C@@H]1C/C=C1/C(=O)OC[C@H]1O [ANDROGRAPHOLIDE] | 125.24 | 24.2 | 87.82 | 61.95 | 84.71 | 34.5 | 42.2 | 93.4 | 89.6 | 83.41 | 0.22 | 99.78 | 89.75 | 23.48 | 113.89 | 69.92 | 61.89 | 16.7 | 3.73 | 59.17 | growth inhibition (GI) (EKVX): inactive; inhibition of growth at 10 µM (HT-29): 73%; Activity (NCI-H226): 91.74%; Activity [15]: 21.84%; inhibition of growth at 10 µM [16]: 1.89%; inhibition of growth at 10 µM (MDA-MB-435): 27.4%; inhibition of growth at 10 µM (NCI-H522): 82.9%; Activity [17]: 88.03% |
| C=C1CC[C@@H]2[C@](C)(COC(C)=O)[C@H](OC(C)=O)CC[C@@]2(C)[C@@H]1CC(NCc1ccc(F)cc1)C1=CCOC1=O (mixture of isomers) | 80.59 | 52 | 57.9 | 58.06 | 86.82 | 81.2 | 83.4 | 20.82 | 31.26 | 64.45 | 34.9 | 65.1 | 50.93 | 9.18 | 96.13 | 32.2 | 37.04 | 98.7 | 21.2 | 23.7 | inhibition of growth at 10 µM (EKVX): 50%; inhibition of growth at 10 µM (HT-29): 78.7%; inhibition of growth at 10 µM [3]: 10.7%; Activity (NCI-H226): 40.13%; Activity [15]: 9.33%; inhibition of growth at 10 µM [16]: 0.37%; inhibition of growth at 10 µM (MDA-MB-435): 67.3%; inhibition of growth at 10 µM (NCI-H522): 79.1% |
